Experimental data reported in ChEMBL document CHEMBL5579846, “Synthesis of thiazolidine-2,4-dione tethered 1,2,3-triazoles as α-amylase inhibitors: In vitro approach coupled with QSAR, molecular docking, molecular dynamics and ADMET studies” (Eur J Med Chem, 2024).

target: T1, Alpha amylase (Homo sapiens, UniProt P0DUB6); test: Inhibition of alpha-amylase (unknown origin) using 1% starch as substrate preincubated for 30 mins followed by substrate addition and measured after 30 mins by colorimetric analysis; type: protein assay
T1 sequence (P0DUB6 whole entry): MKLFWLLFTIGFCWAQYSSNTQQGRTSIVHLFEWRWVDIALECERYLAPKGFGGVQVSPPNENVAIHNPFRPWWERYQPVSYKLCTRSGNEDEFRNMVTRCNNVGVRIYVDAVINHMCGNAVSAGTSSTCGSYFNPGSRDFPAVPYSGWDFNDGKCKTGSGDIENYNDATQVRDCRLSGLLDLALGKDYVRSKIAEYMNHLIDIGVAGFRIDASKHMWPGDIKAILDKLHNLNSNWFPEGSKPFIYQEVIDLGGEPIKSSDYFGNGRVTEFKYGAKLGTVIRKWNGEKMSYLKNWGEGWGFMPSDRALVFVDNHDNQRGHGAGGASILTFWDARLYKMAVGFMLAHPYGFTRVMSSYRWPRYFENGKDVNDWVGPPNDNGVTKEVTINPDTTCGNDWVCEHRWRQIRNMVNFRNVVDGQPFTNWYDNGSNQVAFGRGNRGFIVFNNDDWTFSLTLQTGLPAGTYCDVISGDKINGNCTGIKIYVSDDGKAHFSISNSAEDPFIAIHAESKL

Compound | IC50 [µM] | pIC50
CN(C)/C=C1\SC(=O)N(Cc2cn(-c3ccnc4cc(Cl)ccc34)nn2)C1=O | 40 | 7.399
CN(C)/C=C1\SC(=O)N(Cc2cn(CC(=O)c3ccc(Br)cc3)nn2)C1=O | 78 | 7.108
Cc1ccc(-n2cc(CN3C(=O)S/C(=C\N(C)C)C3=O)nn2)c(C)c1 | 48 | 7.318
CCCCn1cc(CN2C(=O)S/C(=C\N(C)C)C2=O)nn1 | 58 | 7.24
CN(C)/C=C1\SC(=O)N(Cc2cn(Cc3ccccc3)nn2)C1=O | 80 | 7.095
CN(C)/C=C1\SC(=O)N(Cc2cn(Cc3ccc(Cl)cc3Cl)nn2)C1=O | 45 | 7.349
CN(C)/C=C1\SC(=O)N(Cc2cn(-c3cccc(Cl)c3Cl)nn2)C1=O | 60 | 7.222
COc1ccccc1-n1cc(CN2C(=O)S/C(=C\N(C)C)C2=O)nn1 | 65 | 7.185
Cc1ccc(C)c(-n2cc(CN3C(=O)S/C(=C\N(C)C)C3=O)nn2)c1 | 93 | 7.032
C#CCN1C(=O)S/C(=C\N(C)C)C1=O | 139 | 6.859
Cc1cc(C)cc(-n2cc(CN3C(=O)S/C(=C\N(C)C)C3=O)nn2)c1 | 66 | 7.182

Results, then the compound that gave them:

IC50 [µM] | pIC50 | Compound
55 | 7.258 | CN(C)/C=C1\SC(=O)N(Cc2cn(-c3cccc(C(F)(F)F)c3)nn2)C1=O
99 | 7.003 | CN(C)/C=C1\SC(=O)N(Cc2cn(-c3ccccc3)nn2)C1=O
93 | 7.031 | CN(C)/C=C1\SC(=O)N(Cc2cn(-c3ccc(F)cc3)nn2)C1=O
66 | 7.182 | CN(C)/C=C1\SC(=O)N(Cc2cn(-c3cccc(Cl)c3)nn2)C1=O
59 | 7.227 | CN(C)/C=C1\SC(=O)N(Cc2cn(-c3ccc([N+](=O)[O-])cc3)nn2)C1=O
68 | 7.169 | CCc1ccc(-n2cc(CN3C(=O)S/C(=C\N(C)C)C3=O)nn2)cc1
61 | 7.215 | Cc1cccc(-n2cc(CN3C(=O)S/C(=C\N(C)C)C3=O)nn2)c1
53 | 7.276 | COc1ccc(-n2cc(CN3C(=O)S/C(=C\N(C)C)C3=O)nn2)cc1
49 | 7.307 | CCc1ccccc1-n1cc(CN2C(=O)S/C(=C\N(C)C)C2=O)nn1
54 | 7.268 | CC(C)c1ccc(-n2cc(CN3C(=O)S/C(=C\N(C)C)C3=O)nn2)cc1
69 | 7.164 | COc1cccc(-n2cc(CN3C(=O)S/C(=C\N(C)C)C3=O)nn2)c1
91 | 7.039 | CN(C)/C=C1\SC(=O)N(Cc2cn(-c3ccccc3Cl)nn2)C1=O
98 | 7.01 | CN(C)/C=C1\SC(=O)N(Cc2cn(-c3ccc(Cl)cc3)nn2)C1=O
48 | 7.319 | CN(C)/C=C1\SC(=O)N(Cc2cn(-c3ccccc3C(F)(F)F)nn2)C1=O
84 | 7.077 | CN(C)/C=C1\SC(=O)N(Cc2cn(-c3ccc(C(F)(F)F)cc3)nn2)C1=O
